Literature values, collected in patent publication US6916480B2, “Wiper containing a controlled-release anti-microbial agent” (Kimberly-Clark Worldwide, Inc., priority 1999, dated 2005).

Experiments:
Salmonella spp. = settings: according to most literature
E. Coli = settings: according to most literature

Compound: [Ag] [silver]
- silver content that can effectively kill microbes (Salmonella spp.): 20 parts per billion (ppb)
- silver content that can effectively kill microbes (E. Coli): 20 parts per billion (ppb)
